This assay relates to synaptosomes. Nature of the assay: NAD+ uptake by isolated synaptosomes (synaptosomal NAD(H) levels). Further details: species or system mouse.

For `NC(=O)c1ccc[n+]([C@@H]2O[C@H](COP(=O)([O-])OP(=O)(O)OC[C@H]3O[C@@H](n4cnc5c(N)ncnc54)[C@H](O)[C@@H]3O)[C@@H](O)[C@H]2O)c1` [NAD^+, nicotinamide adenine dinucleotide], the “increase of synaptosomal NAD(H) levels compared to control samples” value (synaptosomes incubated with 10 mM NAD+) amounted to 2 fold. As for brilliant blue, the “uptake of NAD+ by synaptosomes” value (purinergic receptor P2X(7)-gated channels inhibitor) was “blocked”.

The record behind these values is patent US20120328526A1, “Modulation of Nad+ Activity in Neuropathophysiological Conditions and Uses Thereof” (University of Maryland, Baltimore, priority 2011, published 2012).
